Measured values from US20260285857A1, “BICYCLIC AND HETEROCYCLIC AMIDE COMPOUNDS” (priority 2024, published 2026).

These molecules were tested on immunoglobulin light chain protein WIL-FL T46L (assay: Differential scanning fluorimetry (thermal shift) assay). Settings: Table A; temperature shift [Tm]compound-[Tm]vehicle; recombinant WIL-FL T46L.
Type: binding
For `Cc1cc(N2CC[C@](C)(c3ccccc3)C2)cn2nc(C(=O)NC34CCC(C(=O)O)(C3)C4)nc12` [Compound 207], the DSF was “***** (>2.5° C.=*****)”.
With `COC(=O)c1cccc(-c2nc3n(n2)CCN(C(=O)c2nc4c(C)cc(N5CC[C@](C)(c6ccccc6)C5)cn4n2)C3)n1` [Compound 403] the DSF was “***** (>2.5° C.=*****)”.
With `Cc1cc(N2CCC(C)(c3ccccc3Cl)C2)cn2nc(C(=O)N3CC[C@@]4(CCN(c5cccc(C(=O)O)n5)C4)C3)nc12` (stereo partly shown) [Compound 417] the DSF was “***** (>2.5° C.=*****)”.
In the case of `Cc1cc(N2CCC(C)(c3ccc(F)c(F)c3)C2)cn2nc(C(=O)N3C[C@@H]4CN(c5cccc(C(=O)O)n5)C[C@@H]4C3)nc12` (stereo partly shown) [Compound 421], the DSF was “***** (>2.5° C.=*****)”.
For `Cc1cc(N2CC[C@](C)(c3ccccc3)C2)cn2nc(C(=O)N3CC4(C(=O)O)CC3C4)nc12` [Compound 439], the DSF was “***** (>2.5° C.=*****)”.
`Cc1cccc(C2CCC23CN(c2cc(C)c4nc(C(=O)N5CC[C@@]6(CCN(c7cccc(C(=O)O)n7)C6)C5)nn4c2)C3)c1` (stereo partly drawn) [Compound 17, 6-((5R)-7-(8-methyl-6-(5-(m-tolyl)-2-azaspiro[3.3]heptan-2-yl)-[1,2,4]triazolo[1,5-a]pyridine-2-carbonyl)-2,7-diazaspiro[4.4]nonan-2-yl)picolinic acid] was tested, and the DSF was “***** (>2.5° C.=*****)”.
For `Cc1cc(N2CC[C@](C)(c3ccccc3)C2)cn2nc(C34CC(O)(CO3)C4)nc12` [Compound 381], the DSF was “***** (>2.5° C.=*****)”.
In the case of `Cc1cc(N2CC[C@](C)(c3ccccc3)C2)cn2nc(C(=O)NC3CCN(c4cccnc4C(=O)O)CC3)nc12` [Compound 265], the DSF was “***** (>2.5° C.=*****)”.
With `Cc1cc(N2CC[C@](C)(c3ccccc3)C2)cn2nc(C34COC(C3)C4C(N)=O)nc12` (stereo partly shown) [Compound 69] the DSF was “**** (>1.5-2.5° C.=****)”.
For `Cc1cc(N2CCC(C)(c3cncc(F)c3)C2)cn2nc(C(=O)N3CC[C@@]4(CCN(c5cccc(C(=O)O)n5)C4)C3)nc12` (stereo partly shown) [Compound 424], the DSF was “**** (>1.5-2.5° C.=****)”.
For `CCC1(c2ccc(C)cc2)CN(c2cc(C)c3nc(C(=O)N4C[C@@H]5CN(c6cccc(C(=O)O)n6)C[C@@H]5C4)nn3c2)C1` [Compound 396], the DSF was “***** (>2.5° C.=*****)”.
For `Cc1cc(N2CC[C@](C)(c3ccccc3)C2)cn2nc(C(=O)N3CCC4(CCN(C5CCCC(C(=O)O)C5)C4)C3)nc12` (stereo partly shown) [Compound 289], the DSF was “***** (>2.5° C.=*****)”.
In the case of `Cc1cc(N2CC[C@](C)(c3ccccc3)C2)cn2nc(C(=O)N3CCC4(C3)OCC4N3CC4C(C3)C4C(=O)O)nc12` (stereo partly shown) [Compound 375], the DSF was “***** (>2.5° C.=*****)”.
For `Cc1cc(N2CC[C@@](CO)(c3ccccc3)C2)cn2nc(C(=O)N3CC[C@@]4(CCN(c5cccc(C(=O)O)n5)C4)C3)nc12` [Compound 331], the DSF was “** (>0.5-1 °C =**)”.
With `Cc1cc(N2CC[C@@](C)(c3ccc(F)cc3)C2)cn2nc(C(=O)N3CC[C@@]4(CCN(c5cccc(C(=O)O)n5)C4)C3)nc12` [Compound 428] the DSF was “***** (>2.5° C.=*****)”.
With `Cc1cc(OC[C@H](C)c2ccccc2)cn2nc(C(=O)NC3CC4(CC(O)C4)C3)nc12` (stereo partly shown) [Compound 313] the DSF was “***** (>2.5° C.=*****)”.
For `Cc1cc(N2CC[C@](C)(c3ccccc3)C2)cn2nc(C(=O)NC3CCC(N4CC5C(C4)C5C(=O)O)C3)nc12` (stereo partly shown) [Compound 365], the DSF was “***** (>2.5° C.=*****)”.
For `Cc1cc(N2CC[C@](C)(c3ccccc3)C2)cn2nc(C(=O)NC34CC(CO)(C3)C4)nc12` [Compound 155], the DSF was “***** (>2.5° C.=*****)”.
`CCS(=O)(=O)NCc1cc(N2CC[C@](C)(c3ccccc3)C2)cn2nc(C(=O)NC)nc12` [Compound 349] was tested, and the DSF was “***** (>2.5° C.=*****)”.
In the case of `Cc1cc(N2CC[C@](C)(c3ccccc3)C2)cn2nc(C34CC(CO3)C4Cn3cc(C(=O)O)nn3)nc12` (stereo partly shown) [Compound 91], the DSF was “***** (>2.5° C.=*****)”.
`Cc1cc(N2CCC(C)(c3ccc(F)cn3)C2)cn2nc(C(=O)N3CC[C@@]4(CCN(c5cccc(C(=O)O)n5)C4)C3)nc12` (stereo partly shown) [Compound 423] was tested, and the DSF was “*** (>1-1.5° C.=***)”.
For `Cc1cc(N2CC[C@](C)(c3ccccc3)C2)cn2nc(C(=O)NC3CCN(CC(=O)O)C3)nc12` (stereo partly shown) [Compound 192], the DSF was “***** (>2.5° C.=*****)”.
In the case of `Cc1cc(N2CC[C@](C)(c3ccccc3)C2)cn2nc(C(=O)N3CCC4(CC3)CCN(c3cccc(C(=O)O)n3)C4)nc12` [Compound 239], the DSF was “***** (>2.5° C.=*****)”.
With `Cc1cc(N2CC[C@](C)(c3ccccc3)C2)cn2nc(C(=O)NCC3(C(=O)O)CC3)nc12` [Compound 165] the DSF was “***** (>2.5° C.=*****)”.
With `Cc1cc(N2CC[C@](C)(c3ccccc3)C2)cn2nc(C(C)(C)OC3CCNC3)nc12` (stereo partly shown) [Compound 168] the DSF was “**** (>1.5-2.5° C.=****)”.
With `Cc1cc(N2CC[C@@](C)(c3ccccc3)C2)cn2nc(C(=O)NCC(O)C(F)(F)F)nc12` (stereo partly shown) [Compound 202] the DSF was “***** (>2.5° C.=*****)”.
In the case of `Cc1cc(N2CC[C@](C)(c3ccccc3)C2)cn2nc(C(=O)NC3CNC(C)(C(=O)O)C3)nc12` (stereo partly shown) [Compound 179], the DSF was “***** (>2.5° C.=*****)”.

Same assay, conditions: Table B; temperature shift [Tm]compound-[Tm]vehicle; recombinant WIL-FL T46L
In the case of `Cc1cc(N2CC[C@](C)(c3ccccc3)C2)cn2nc(C(=O)NC3CCC34CC(OCC(=O)O)C4)nc12` (stereo partly drawn) [Compound 677, 2-[7-[[8-methyl-6-[(3R)-3-methyl-3-phenyl-pyrrolidin-1-yl]-[1,2,4]triazolo[1,5-a]pyridine-2-carbonyl]amino]spiro[3.3]heptan-2-yl]oxyacetic acid], the DSF was “***** (>2.5° C.=*****)”.
In the case of `Cc1nc(CNC(=O)C23COC(c4nc5c(C)cc(N6CC[C@](C)(c7ccccc7)C6)cn5n4)(C2)C3)n[nH]1` [Compound 448], the DSF was “***** (>2.5° C.=*****)”.
For `Cc1cc(N2CC[C@](C)(c3ccccc3)C2)cn2nc(C(=O)N3CCCN(c4ccc(C(=O)O)cn4)CC3)nc12` [Compound 694], the DSF was “***** (>2.5° C.=*****)”.
`CCS(=O)(=O)NCC12COC(c3nc4c(C)cc(N5CC[C@](C)(c6ccccc6)C5)cn4n3)(C1)C2` [Compound 463] was tested, and the DSF was “***** (>2.5° C.=*****)”.
In the case of `COc1cc(N2CCC3(CCN(C(=O)c4nc5c(C)cc(N6CC[C@](C)(c7ccccc7)C6)cn5n4)C3)C2)cc(C(=O)O)n1` (stereo partly shown) [Compound 619], the DSF was “***** (>2.5° C.=*****)”.
For `Cc1nc(C2C3(CNS(=O)(=O)CC(C)(C)C(=O)O)COC2(c2nc4c(C)cc(N5CC[C@](C)(c6ccccc6)C5)cn4n2)C3)n[nH]1` (stereo partly drawn) [Compound 584, 2,2-dimethyl-3-(N-((5-(5-methyl-11H-1,2,4-triazol-3-yl)-1-(8-methyl-6-((R)-3-methyl-3-phenylpyrrolidin-1-yl)-[1,2,4]triazolo[1,5-a]pyridin-2-yl)-2-oxabicyclo[2.1.1]hexan-4-yl)methyl)sulfamoyl)propanoic acid], the DSF was “***** (>2.5° C.=*****)”.
For `Cc1cc(N2CC[C@](C)(c3ccccc3)C2)cn2nc(C34CC(C(=O)N5CC6C(C5)C6C(=O)O)(CO3)C4)nc12` (stereo partly shown) [Compound 445], the DSF was “***** (>2.5° C.=*****)”.
With `Cc1cc(N2CC[C@](C)(c3ccccc3)C2)cn2nc(C34CC(CO3)C4c3nc(N)nn3C(=O)C3CC(C)(C(=O)O)C3)nc12` (stereo partly shown) [Compound 556] the DSF was “***** (>2.5° C.=*****)”.
For `Cc1cc(N2CC[C@](C)(c3ccccc3)C2)cn2nc(C(=O)NC3CC[C@@H]3Nc3cccc(C(=O)O)n3)nc12` (stereo partly shown) [Compound 635], the DSF was “***** (>2.5° C.=*****)”.
With `Cc1cc(C(=O)O)cc(N2CC[C@@]3(CCN(C(=O)c4nc5c(C)cc(N6CC[C@](C)(c7ccccc7)C6)cn5n4)C3)C2)n1` [Compound 729, 2-methyl-6-((R)-7-(8-methyl-6-((R)-3-methyl-3-phenylpyrrolidin-1-yl)-[1,2,4]triazolo[1,5-a]pyridine-2-carbonyl)-2,7-diazaspiro[4.4]nonan-2-yl)isonicotinic acid] the DSF was “***** (>2.5° C.=*****)”.
For `Cc1cc(N2CC[C@](C)(c3ccccc3)C2)cn2nc(C34CC(CO)(C3)C(C)(C)O4)nc12` [Compound 473, (R)-(3,3-dimethyl-1-(8-methyl-6-(3-methyl-3-phenylpyrrolidin-1-yl)-[1,2,4]triazolo[1,5-a]pyridin-2-yl)-2-oxabicyclo[2.1.1]hexan-4-yl)methanol], the DSF was “***** (>2.5° C.=*****)”.
In the case of `Cc1cc(N2CC[C@](C)(c3ccccc3)C2)cn2nc(C34CC(CO3)C4COc3ccc(=O)[nH]c3)nc12` (stereo partly shown) [Compound 500], the DSF was “***** (>2.5° C.=*****)”.
In the case of `C[C@]1(c2ccccc2)CCN(c2cc(CO)c3nc(C45CC(CO4)C5CO)nn3c2)C1` (stereo partly shown) [Compound 489], the DSF was “***** (>2.5° C.=*****)”.
With `Cc1cc(N2CC[C@](C)(c3ccccc3)C2)cn2nc(C34CC(CO)(CO3)C4C(=O)NCC(C)(C)C(=O)O)nc12` (stereo partly drawn) [Compound 569, 3-[[4-(hydroxymethyl)-1-[8-methyl-6-[(3R)-3-methyl-3-phenyl-pyrrolidin-1-yl]-[1,2,4]triazolo[1,5-a]pyridin-2-yl]-2-oxabicyclo[2.1.1]hexane-5-carbonyl]amino]-2,2-dimethyl-propanoic acid] the DSF was “**** (>1.5-2.5° C.=****)”.
`Cc1cc(N2CC[C@](C)(c3ccccc3)C2)cn2nc(C(=O)N3CCC4(C3)CN(c3cccc(C(=O)O)n3)C(=O)O4)nc12` (stereo partly shown) [Compound 687] was tested, and the DSF was “***** (>2.5° C.=*****)”.
`Cc1cc(N2CC[C@](C)(c3ccccc3)C2)cn2nc(C(=O)N3CCc4c(nnn4C4CCC(C(=O)O)C4)C3)nc12` (stereo partly shown) [Compound 638] was tested, and the DSF was “***** (>2.5° C.=*****)”.
For `COC(C)(CS(=O)(=O)Nc1n[nH]c(C2C3COC2(c2nc4c(C)cc(N5CC[C@](C)(c6ccccc6)C5)cn4n2)C3)n1)C(=O)O` (stereo partly shown) [Compound 567], the DSF was “**** (>1.5-2.5° C.=****)”.
For `Cc1cc(N2CC[C@](C)(c3ccccc3)C2)cn2nc(C(=O)NC34COC(CN(c5cccc(C(=O)O)n5)C3)C4)nc12` (mixture of isomers) [Compound 690, 6-[1-[[8-methyl-6-[rac-(3R)-3-methyl-3-phenyl-pyrrolidin-1-yl]-[1,2,4]triazolo[1,5-a]pyridine-2-carbonyl]amino]-6-oxa-3-azabicyclo[3.2.1]octan-3-yl]pyridine-2-carboxylic acid], the DSF was “***** (>2.5° C.=*****)”.
For `Cc1cc(N2CC[C@](C)(c3ccccc3)C2)cn2nc(C34CC(CO)(CO3)C4C(=O)O)nc12` (stereo partly shown) [Compound 575, 4-(hydroxymethyl)-1-(8-methyl-6-((r)-3-methyl-3-phenylpyrrolidin-1-yl)-[1,2,4]triazolo[1,5-a]pyridin-2-yl)-2-oxabicyclo[2.1.1]hexane-5-carboxylic acid], the DSF was “***** (>2.5° C.=*****)”.
